Assays:
[1] = Pharmacokinetic experiment, oral capsules in Beagle dogs; assay type: in vivo; conditions: dog, plasma, male Beagle dogs, 5 mg/kg
Procedure: The crystal form of the compound having Formula (I) was filled into capsules, which were used for oral administration.
Three male Beagle dogs weighing 8-12 kg were orally administered with capsules containing the test sample at a dose of 5 mg/kg, and blood samples were taken at time points of 0.25 h, 0.5 h, 1.0 h, 2.0 h, 4.0 h, 6.0 h, 8.0 h and 24 h. Standard curve was plotted based on concentrations of the samples in a suitable range, the concentration of the test sample in the plasma sample was measured and quantified by AB SCIEX API4000 LC-MS/MS at MRM mode. Pharmacokinetic parameters were calculated according to drug concentration-time curve using a noncompartmental method by WinNonLin 6.3 software.

[2] = Stability experiment (high-temperature, high-humidity, photostability); assay type: physicochemical
Procedure: (§1) (1) High-temperature test: A batch of the test sample was taken and put into a flat weighing bottle, divided into ≤5 mm thick thin layer. The sample was placed at 60° C. for 30 days. The sample was then sampled at day 5, day 13 and day 30, and the change of the sample's color was observed. The purity of the sample was detected by HPLC.
(2) High-humidity test: A batch of the test sample was taken and put into a flat weighing bottle, divided into ≤5 mm thick thin layer. The sample was placed at 25° C. and RH for 90%±5% for 30 days. The sample wad sampled at day 5, day 13 and day 30, and the change of the sample's color was observed. The purity of the sample was detected by HPLC.
as §1, with “(3) Photostability” for “(1) High-temperature”, “taken” for “taken and put”, “placed in an opened light box (with UV)” for “placed”, “the illuminance 4500+5001x, UV light ≥0.7w/m2” for “60° C.”

[3] = Hygroscopicity experiment (dynamic vapor sorption); assay type: physicochemical; conditions: relative humidity of 80%, criterion of hygroscopic weight gain
Procedure: The description of the hygroscopic characteristics and the definition of the hygroscopic weight gain (Appendix 9103 of Chinese Pharmacopoeia 2020 Edition, Guidelines for Drug Hygroscopicity Tests, experimental conditions: 25° C.±1° C., 80%+2% relative humidity) are described in the table below:
The hygroscopicity of the present invention is measured using the DVS INT-Std dynamic moisture and gas adsorption analyzer of the Surface Measurement Systems Company in UK. The humidity test range was 0%-95%, the air flow was 200 mL/min, the temperature was 25° C., test point: take one test point per […] 5% humidity.
An appropriate amount of the test sample was taken and the hygroscopicity of the test sample was tested by dynamic moisture adsorption device. It can be seen from FIG. 4 that the weight gain of the crystal form J according to the present invention is more than 0.2% but less than 2% after equilibrium under the condition of a relative humidity of 80%. […] Therefore, the crystal form J of the invention is not susceptible to deliquescent under the influence of high humidity, which is convenient for the long-term storage of the medicine.

SMILES: O=C(O)c1ccc2c(c1)Oc1ccc(OCc3c(-c4c(Cl)cccc4Cl)noc3C3CC3)nc1C1(CC1)C2 [crystal form J, 2-((5-cyclopropyl-3-(2,6-dichlorophenyl)isoxazol-4-yl)methoxy)-10H-spiro[benzo[6,7]oxepino[3,2-b]pyridine-11,1′-cyclopropane]-7-carboxylic acid]
- AUC(0-t) [1]: 0.885 µg·h/mL
- Cmax [1]: 0.554 µg/mL
- Tmax [1]: 40 min
- change in appearance and chemical purity (HPLC) ([2]; 60° C., 25° C. and RH 90%±5%, light box with UV, 30 days, sampled at day 5, 13, 30): no obvious changes in the appearance and chemical purity
- crystal structure stability ([2]; high temperature, high humidity and/or lighting conditions): remains basically unchanged
- hygroscopic characteristics [3]: lightly hygroscopic
